Source: the NIST ThermoML archive (doi:10.1021/acs.jced.8b00132)
Where “and” joins values, the source holds several entries; their conditions need not be identical. Equal entries are not always repeated. Numbers after ± are expanded uncertainties.

Details: Liquid, transient hot wire

O=C(C(F)(F)C(F)(F)F)C(F)(C(F)(F)F)C(F)(F)F [dodecafluoro-2-methylpentan-3-one]
Details	thermal conductivity
242.34 K, 5849 kPa	0.06998 ± 0.0014 W/m/K
242.34 K, 5853 kPa	0.06965 ± 0.0014 W/m/K
242.35 K, 208 kPa	0.06798 ± 0.0014 W/m/K
242.35 K, 212 kPa	0.06825 ± 0.0014 W/m/K
242.58 K, 60304 kPa	0.08223 ± 0.0017 W/m/K
242.58 K, 60314 kPa	0.08199 ± 0.0017 W/m/K
242.59 K, 33710 kPa	0.0767 ± 0.0016 W/m/K
242.59 K, 50797 kPa	0.08019 ± 0.0016 W/m/K
242.59 K, 50816 kPa	0.07983 ± 0.0016 W/m/K
242.59 K, 68418 kPa	0.08363 ± 0.0017 W/m/K
242.59 K, 68434 kPa	0.08369 ± 0.0017 W/m/K
242.6 K, 33703 kPa	0.07658 ± 0.0016 W/m/K
242.6 K, 41984 kPa	0.07877 ± 0.0016 W/m/K
242.6 K, 41989 kPa	0.07848 ± 0.0016 W/m/K
242.67 K, 25698 kPa	0.07459 ± 0.0015 W/m/K
242.68 K, 25706 kPa	0.07494 ± 0.0015 W/m/K
242.77 K, 18756 kPa	0.073 ± 0.0015 W/m/K
242.77 K, 18761 kPa	0.07312 ± 0.0015 W/m/K
242.79 K, 12031 kPa	0.07146 ± 0.0015 W/m/K
242.8 K, 12030 kPa	0.07148 ± 0.0015 W/m/K
242.91 K, 5853 kPa	0.06968 ± 0.0014 W/m/K
242.91 K, 5856 kPa	0.06976 ± 0.0014 W/m/K
242.92 K, 207 kPa	0.06801 ± 0.0014 W/m/K
242.93 K, 208 kPa	0.06804 ± 0.0014 W/m/K
243.11 K, 60298 kPa	0.08226 ± 0.0017 W/m/K
243.11 K, 68406 kPa	0.084 ± 0.0017 W/m/K
243.11 K, 68416 kPa	0.08398 ± 0.0017 W/m/K
243.12 K, 60300 kPa	0.082 ± 0.0017 W/m/K
243.13 K, 50796 kPa	0.08047 ± 0.0016 W/m/K
243.13 K, 50797 kPa	0.08042 ± 0.0016 W/m/K
243.16 K, 41981 kPa	0.07861 ± 0.0016 W/m/K
243.16 K, 41982 kPa	0.07868 ± 0.0016 W/m/K
243.17 K, 33693 kPa	0.07674 ± 0.0016 W/m/K
243.17 K, 33696 kPa	0.07679 ± 0.0016 W/m/K
243.25 K, 25695 kPa	0.07494 ± 0.0015 W/m/K
243.26 K, 25691 kPa	0.07494 ± 0.0015 W/m/K
243.36 K, 18758 kPa	0.07321 ± 0.0015 W/m/K
243.36 K, 18761 kPa	0.07324 ± 0.0015 W/m/K
243.39 K, 12032 kPa	0.07131 ± 0.0015 W/m/K
243.41 K, 12030 kPa	0.07139 ± 0.0015 W/m/K
243.52 K, 5859 kPa	0.0695 ± 0.0014 W/m/K and 0.06954 ± 0.0014 W/m/K
243.55 K, 209 kPa	0.06795 ± 0.0014 W/m/K
243.56 K, 209 kPa	0.06794 ± 0.0014 W/m/K
243.69 K, 68395 kPa	0.08376 ± 0.0017 W/m/K
243.69 K, 68403 kPa	0.08352 ± 0.0017 W/m/K
243.7 K, 60284 kPa	0.08212 ± 0.0017 W/m/K
243.71 K, 60287 kPa	0.08216 ± 0.0017 W/m/K
243.73 K, 50783 kPa	0.08028 ± 0.0016 W/m/K
243.74 K, 50794 kPa	0.08029 ± 0.0016 W/m/K
243.77 K, 41976 kPa	0.07861 ± 0.0016 W/m/K
243.77 K, 41985 kPa	0.07849 ± 0.0016 W/m/K
243.8 K, 33690 kPa	0.07668 ± 0.0016 W/m/K
243.8 K, 33707 kPa	0.07668 ± 0.0016 W/m/K
271.75 K, 5167 kPa	0.06405 ± 0.0013 W/m/K
271.76 K, 5170 kPa	0.06371 ± 0.0013 W/m/K
271.8 K, 431 kPa	0.06194 ± 0.0013 W/m/K
271.81 K, 411 kPa	0.06198 ± 0.0013 W/m/K
271.99 K, 24357 kPa	0.07109 ± 0.0015 W/m/K
271.99 K, 24380 kPa	0.07115 ± 0.0015 W/m/K
272.01 K, 32229 kPa	0.0734 ± 0.0015 W/m/K
272.01 K, 32230 kPa	0.07317 ± 0.0015 W/m/K
272.03 K, 40370 kPa	0.07538 ± 0.0015 W/m/K
272.04 K, 40373 kPa	0.07501 ± 0.0015 W/m/K
272.04 K, 46123 kPa	0.07637 ± 0.0016 W/m/K
272.05 K, 11155 kPa	0.06578 ± 0.0014 W/m/K
272.05 K, 11165 kPa	0.06595 ± 0.0014 W/m/K
272.05 K, 46118 kPa	0.07672 ± 0.0016 W/m/K
272.06 K, 17558 kPa	0.06827 ± 0.0014 W/m/K
272.07 K, 17554 kPa	0.06805 ± 0.0014 W/m/K
272.15 K, 5158 kPa	0.06391 ± 0.0013 W/m/K
272.16 K, 5173 kPa	0.06421 ± 0.0013 W/m/K
272.21 K, 418 kPa	0.06216 ± 0.0013 W/m/K
272.21 K, 421 kPa	0.06256 ± 0.0013 W/m/K
272.49 K, 24363 kPa	0.06931 ± 0.0014 W/m/K
272.5 K, 32236 kPa	0.07245 ± 0.0015 W/m/K
272.5 K, 32238 kPa	0.07194 ± 0.0015 W/m/K
272.5 K, 40381 kPa	0.07419 ± 0.0015 W/m/K
272.51 K, 40379 kPa	0.07408 ± 0.0015 W/m/K
272.52 K, 46113 kPa	0.0755 ± 0.0015 W/m/K
272.52 K, 46119 kPa	0.07509 ± 0.0015 W/m/K
272.58 K, 5167 kPa	0.06402 ± 0.0013 W/m/K
272.58 K, 11163 kPa	0.0662 ± 0.0014 W/m/K
272.58 K, 17548 kPa	0.06807 ± 0.0014 W/m/K
272.58 K, 17564 kPa	0.06792 ± 0.0014 W/m/K
